Source: patent publication US20250302913A1, “LACRIPEP PROMOTES NEUROREGENERATION AND MAINTAINS EPITHELIAL PROGENITOR CELL IDENTITY” (The Regents of The University of California, priority 2022, published 2025)

Test system: Aire KO mice
Assay: Basal tear secretion (phenol red thread) in Aire KO dry eye mice
Type: in vivo, mouse
Conditions: day 15, 4 μM topical 3x per day for 14 days
Description: To determine the impact of lacripep on physiological (basal) tear secretion, lacripep (4 μM) or phosphate buffered saline (PBS, control) was topically applied to Aire KO corneas 3 times (3×) per day for 14 consecutive days (from 5 to 7 wk of age) and tear production was measured at day 0, 7 and 15 (FIG. 1A).
All procedures were approved by the UCSF Institutional Animal Care and Use Committee (IACUC) and adhered to the NIH Guide for the Care and Use of Laboratory Animals (Approval number: 332AN089075-02). Wild type (WT) and Aire-deficient mice on the BALB/c background (BALB/c Aire KO) were the gift of Mark Anderson, University of California, San Francisco. Adult female mice (aged between 5 and 7 weeks) were used in all experiments. […] Appropriate sample size was calculated using power calculations. […]
Mice were anesthetized with isoflurane and basal tear secretion was then measured using a Zone-Quick phenol red thread (as indicated by the length of the tear-absorbed region in 15 seconds). Stimulated tear secretion was measured after 4.5 mg/kg of pilocarpine diluted in saline was injected into the peritoneum (i.p.). Ten minutes later, mice were anesthetized with isoflurane and tear secretion was measured using a Zone-Quick phenol red thread (Showa Yakuhin Kako Co. Ltd., Tokyo, Japan).

## Ac-KQFIENGSEFAQKLLKKFSLLKPWA-NH2 [lacripep, amino terminus acetylated, carboxyl terminus aminated]
  basal tear volumes relative to WT: 83 % of WT
